Data: paper PMC3510254 (PLoS Pathogens, 2012)
Where no end group is shown, it is not given here.

What was measured:
proteasome = assay: Proteasome inhibition of endogenous antigen processing in vHCV 827-infected B-LCLs, IFN-γ read-out of CTL lines; assay type: cell-based, human
[1] = system: constitutive proteasome (20S); assay: purified constitutive proteasome in digestion buffer (20 mM HEPES-NaOH pH 7.6, 2 mM MgAc2, 0.5 mM DTT); conditions: human, up to 6 hours
immunoproteasome (20S) [2] = assay: purified immunoproteasome in digestion buffer (20 mM HEPES-NaOH pH 7.6, 2 mM MgAc2, 0.5 mM DTT); conditions: human, up to 6 hours
[3] = system: constitutive proteasome (20S); assay: purified constitutive proteasome, 4 µg in the degradation experiment, in digestion buffer; conditions: human, up to 6 hours
immunoproteasome (20S) [4] = assay: purified immunoproteasome, 4 µg in the degradation experiment, in digestion buffer; conditions: human, up to 6 hours
immunoproteasome = target: T1, immunoproteasome (Homo sapiens, UniProt P28062+P28065+P40306); assay: In vitro proteasomal peptide digest with mass spectrometry; assay type: in vitro ADME; conditions: 25-mer precursor, 1, 2, 4 and 6 hours; 2 µg or 4 µg proteasome; extracted ion chromatograms; Fig 6; triplicate
T1 construct: Constitutive and immuno-20S proteasomes were purified from LCL721.174 and LCL721 human EBV-transformed B cell lines; endogenous in cells; host or cells: LCL721 human EBV-transformed B cell line

For CC[C@H](C)[C@H](NC(=O)[C@H]([C@@H](C)CC)N(C)C(C)=O)C(=O)N[C@H](C(=O)N[C@@H](CC(C)C)C(=O)[C@@]1(C)CO1)[C@@H](C)O [epoxomicin], the “effect on induction of epitope-specific IFN-γ production and number of responding CD8+ T cells” value (proteasome) was “delay the induction of epitope-specific IFN-γ production and considerably decrease the number of responding CD8+ T cells”.

In the case of CC(=O)N[C@@H](CSC(=O)[C@]1([C@@H](O)C(C)C)NC(=O)[C@H](C)[C@@H]1O)C(=O)O [lactacystin], the “reductions in the number of responding CD8+ T cells” value (proteasome) is reported as 30–70%.

In the case of AQTFLATCINGVCWTVYHGAGTRT, the fragment found [1] is reported as “CINGVCWTV” and the fragment found (immunoproteasome (20S) [2]) is reported as “CINGVCWTV”.

VRVCEKMARMILMTHFPLAVMGSSY was tested, and the fragment found [3] was “ARMILMTHF” and the fragment found (immunoproteasome (20S) [4]) was “ARMILMTHF”.

With VRVCEKMARMILMTHFPLAVMGSSY [B27-in-A2] the “precursor degradation rate relative to A2-in-A2 peptide, immunoproteasomal digestion” value (immunoproteasome) was “degraded slightly more slowly than the A2-in-A2 peptide”.
